What was measured:
ND2 mutant flies = test: Mechanical stress-induced (bang sensitive) paralysis test in ND2 mutant flies; format: in vivo, Drosophila; conditions: ND2 mutant flies treated throughout life with 10 μM of drug; tested after aging 15 days
Source text: Mutations affecting mitochondrial complex I, a multi-subunit assembly that couples electron transfer to proton pumping, are the most frequent cause of heritable mitochondrial diseases. Here, a Drosophila model of complex I deficiency caused by a homoplasmic mutation in the mitochondrial-encoded NADH dehydrogenase subunit 2 (ND2) gene is used. […] This ND2 mutant model was used in “bang sensitivity” behavioral analysis to show the effects of kinetin treatment.
All Drosophila strains were maintained on standard cornmeal/molasses medium at 25° C. with a 12-hour lightdark cycle. The ND2de11 and ND2ins1 stock was obtained from the laboratory of Dr. Patrick O'Farrell (University of California, San Francisco) (Xu et al., 2008). The isogenic w1118 stock was obtained from the Bloomington Drosophila Stock Center at Indiana University. […]
Drosophila strains with mutations affecting mitochondrial function often show an analogous seizure-like paralytic phenotype caused by mechanical-stress, termed “bang sensitivity” (Celotto et al., 2011; Fergestad et al., 2006; Ganetzky and Wu, 1982). […] Briefly, flies were vortexed for 10 seconds in inverted glass vials containing cotton stoppers, and the time required for each individual animal to right itself was recorded. […]
Unless otherwise stated statistical significance tests were calculated using an unpaired two-tailed Student's t-test.

[1] = system: mouse primary dopaminergic neuron culture; test: Survival of TH positive dopaminergic neurons in primary mesencephalic culture injured by MPP+; format: cell-based; conditions: for TH neuron survival against MPP+, % of cell survival / dopaminergic (TH positive) neuron survival, percentage of control / decrease of TH positive neurons: MPP+ 4 μM for 48 h
Source text: Parkinson's disease (PD) is the second most common neurodegenerative disorder in the United States. The predominant motor symptoms of PD including slow movement, resting tremor, rigidity, and gait disturbance, are caused by the loss of dopaminergic neurons in the substantia nigra (SN). Although the aetiology of PD remains unknown, both genetic and environmental factors appear to play a role (Paisan-Ruiz et al., 2004; Vila & Przedborski, 2004). The neurotoxicant 1-methyl-4-phenyl-1, 2, 3, 6-tetrahydropyridine (MPTP) is a specific dopaminergic neuronal toxin. MPTP is converted to 1-methyl-4-phenyl pyridinium (MPP+) by astroglia and then causes specific dopaminergic neuronal death in the SN, thus leading to the clinical symptoms of PD in humans, primates and mice (Uhl et al., 1985). For this reason, MPTP-induced dopaminergic neurotoxicity in mice is widely used as a model for PD research. It has been largely reported that MPP+ causes neurodegeneration of dopaminergic neurones in vitro and provides a useful model of Parkinson's disease in vitro. […] This study investigated the neuroprotective effect of Mitokinin test compound (kinetin) in function on time of pre-incubation and concentration on mouse primary mesencephalic cultures injured by exposure to 1-methyl-4-phenylpyridinium (MPP+), a Parkinson' disease model in vitro. BDNF at 10 ng/ml will be used as a positive control in this study.
Mouse dopaminergic neurons are cultured as described by Schinelli et al., 1988 and Viswanath et al., 2001. Briefly pregnant female mouse of 14 days gestation are killed by cervical dislocation (Mouse C57Bl/6; Janvier Labs) and the foetuses are removed from the uterus. The embryonic midbrains are removed and placed in ice-cold medium of Leibovitz (L15; PanBiotech; ref: PO4-27055, batch: 4290114) containing 2% of Penicillin-Streptomycin (PS; PanBiotech; ref: P06-07100; batch: 4810114) and 1% of bovine serum albumin (BSA; PanBiotech; Ref: P06-1391100, batch: K030913). Only the ventral portions of the mesencephalic flexure are used for the cell preparations as this is the region of the developing brain rich in dopaminergic neurons. The midbrains are dissociated by trypsinisation for 20 min at 37° C. (Trypsin EDTA IX; PanBiotech Ref: P10-023100; batch: 1681013). The reaction is stopped by the addition of Dulbecco's modified Eagle's medium (DMEM; PanBiotech Ref PO4-03600; batch: 9710913) containing DNAase I grade II (0.1 mg/ml; Panbiotech, ref: P60-37780100; batch: H130919) and 10% of foetal calf serum (FCS; Invitrogen; ref: 10270-098; batch: 41Q4120K). Cells are then mechanically dissociated by 3 passages through a 10 ml pipette. Cells are then centrifuged at 180×g for 10 min at 4° C. temperature on a layer of BSA (3.5%) in L15 medium. The supernatant is discarded and the cells of pellet is re-suspended in a defined culture medium consisting of Neurobasal (Invitrogen, ref: 21103; batch: 1556347) supplemented with B27 (2%; Invitrogen; ref: 17504; batch: 1446691), L-glutamine (2 mM; PanBiotech; ref: PO4-80100; batch: 6620314) and 2% of PS solution. Viable cells are counted in a Neubauer cytometer using the trypan blue exclusion test. The cells are seeded at a density of 70 000 cells/well in 96 well-plates (wells are pre-coated with poly-L-lysine (Greiner)) and are cultured at 37° C. in a humidified air (95%)/CO2 (5%) atmosphere. Half of the medium are changed every 2 days with fresh medium. In these conditions, after 5 days of culture, astrocytes are present in the culture and release growth factor allowing neurons differentiation. Five to six percents of the neuronal cell population are dopaminergic neurons.
Briefly, on day 5 of culture, the medium was removed and fresh medium was added, without or with kinetin (Sigma ref 48130) at 100 μM, 50 μM, 25 μM and with and without BDNF 10 ng/ml for 2 days, 6 days or 10 days. […]

SH-SYSY cells = test: Modulation of PINK1: Caspase-Glo caspase 3/7 cleavage after MG-132 in SH-SYSY cells; format: cell-based; conditions: then 25 uM MG-132 for 16 hours, % of kinetin's caspase cleavage values; for Run1 Compound (avg as % kinetin): Run1, compound 96 hours; for Run2 Compound (avg as % kinetin): Run2, compound 96 hours; for Run3 Compound (avg as % kinetin): Run3, compound 96 hours
Protocol: We grew SH-SYSY cells in 1:1 mix of DMEM and F12 supplemented with 10% FBS and Pen/Strep (1×) antibiotics on 96 well plates (˜5,000 cells/well) at 37 degrees Celsius in 90 ul per well. We added 10 ul of 10× mix of the compounds identified below in a DMSO and medium mix to the cells. (min. 2 wells per compound per plate), allowed it to incubate for 96 hours at 37 degrees Celsius, then added 25 uM MG-132 for 16 hours (a proteasome inhibitor that triggers apoptosis; this toxicity is known to be opposed by PINK1). Following incubation with MG-132 we added 100 ul of Promega Caspase-Glo® reagent directly to each well to lyse cells and provide a luminescent Caspase 3/7 substrate peptide to quantify caspase cleavage activity. All of the values in Table 2 are presented as a % of kinetin's caspase cleavage values (kinentin was run as a positive control in parallel to the analogs of kinetin shown below).

## Nc1ncnc2nc[nH]c12 [Adenine]
ND2 mutant flies
  mean time necessary for recovery (to right itself) after 10 seconds vortexing: approximately 9 seconds

## c1coc(CNc2ncnc3nc[nH]c23)c1 [Kinetin, kinetin]
[1]; Kinetin 25 μM pre-incubated 10 days
  TH neuron survival against MPP+, % of cell survival: 76%
[1]; Kinetin 100 μM pre-incubated 2 days
  dopaminergic (TH positive) neuron survival, percentage of control: 70%
[1]; Kinetin 100 μM pre-incubated 6 days
  dopaminergic (TH positive) neuron survival, percentage of control: 72%
[1]; Kinetin 100 μM pre-incubated 10 days
  toxicity on dopaminergic neurons on long incubation: toxic
[1]; Kinetin 5004 pre-incubated 10 days
  TH neuron survival against MPP+, % of cell survival: 84%
ND2 mutant flies
  mean time necessary for recovery (to right itself) after 10 seconds vortexing: 0.5 s

## C[n+]1ccc(-c2ccccc2)cc1 [MPP^+, 1-methyl-4-phenylpyridinium]
[1]; 2 days pre-incubation series (FIG. 1)
  decrease of TH positive neurons: ~50%
[1]; 6 days pre-incubation series (FIG. 2)
  decrease of TH positive neurons: ~54%
[1]; 10 days pre-incubation series (FIG. 3)
  decrease of TH positive neurons: ~47%

## c1coc(CC2CNc3ncnc4ncn2c34)c1 (stereo not shown) [MTK- 48, 7-(furan-2-ylmethyl)-8,9-dihydro-7H-imidazo[4,5,1-de]pteridine]
SH-SYSY cells
  Run1 Compound (avg as % kinetin): 92%
  Run2 Compound (avg as % kinetin): 122%
  Run3 Compound (avg as % kinetin): 95%

## c1coc(CNc2ncnc3[nH]ncc23)c1 [MTK- 51, N-(furan-2-ylmethyl)-1H-pyrazolo [3,4-d]pyrimidin-4-amine]
SH-SYSY cells
  Run1 Compound (avg as % kinetin): 80%
  Run2 Compound (avg as % kinetin): 92%

## c1coc(CNc2ccnc3[nH]cnc23)c1 [MTK- 58, N-(furan-2-ylmethyl)-3H-imidazo[4,5-b]pyridin-7-amine]
SH-SYSY cells
  Run1 Compound (avg as % kinetin): 94%
  Run2 Compound (avg as % kinetin): 108%

## c1coc(CNc2ccnc3[nH]ncc23)c1 [MTK- 59, N-(furan-2-ylmethyl)-1H-pyrazolo[3,4-b]pyridin-4-amine]
SH-SYSY cells
  Run1 Compound (avg as % kinetin): 72%
  Run2 Compound (avg as % kinetin): 108%

## c1coc(CNc2nccc3[nH]ncc23)c1 [MTK- 62, N-(furan-2-ylmethyl)-1H-pyrazolo[4,3-c]pyridin-4-amine]
SH-SYSY cells
  Run1 Compound (avg as % kinetin): 88%
  Run2 Compound (avg as % kinetin): 132%

## Cc1nc2c(NCc3ccco3)ncnc2[nH]1 [MTK- 64, N-(furan-2-ylmethyl)-8-methyl-9H-purin-6-amine]
SH-SYSY cells
  Run1 Compound (avg as % kinetin): 79%
  Run2 Compound (avg as % kinetin): 120%
  Run3 Compound (avg as % kinetin): 93%

## Nc1nc(NCc2ccco2)c2nc[nH]c2n1 [MTK- 68, N-6-(furan-2-ylmethyl)-9H-purine-2,6-diamine]
SH-SYSY cells
  Run1 Compound (avg as % kinetin): 95%

B1: BDNF: brain derived neurotrophic factor, used at 10 ng/ml as positive control (protein, UniProt P23560 19-247, looked up)
Neurotrophic factor BDNF …: APMKEANIRGQGGLAYPGVRTHGTLESVNGPKAGSRGLTSLADTFEHVIEELLDEDQKVRPNEENNKDADLYTSRVMLSSQVPLEPPLLFLLEEYKNYLDAANMSMRVRRHSDPARRGELSVCDSISEWVTAADKKTAVDMSGGTVTVLEKVPVSKGQLKQYFYETKCNPMGYTKEGCRGIDKRHWNSQCRTTQSYVRALTMDSKKRIGWRFIRIDTSCVCTLTIKRGR
[1]; BDNF 10 ng/mL, 2 days pre-incubation series
  dopaminergic (TH positive) neuron survival, percentage of control: 87%
[1]; BDNF 10 ng/mL, 6 days pre-incubation series
  dopaminergic (TH positive) neuron survival, percentage of control: 84%
[1]; BDNF 10 ng/mL, 10 days pre-incubation series
  dopaminergic (TH positive) neuron survival, percentage of control: 91%

— patent US10851109B2, “Compositions and methods of using the same for treatment of neurodegenerative and mitochondrial disease” (Mitokinin, Inc., priority 2014, dated 2020)
